Test results from the NIST ThermoML archive (doi:10.1016/j.fluid.2016.11.031).

Experiment: molar heat capacity at constant pressure
Details: Liquid, Flow calorimetry

C1C[C@@H]2[C@H]3CC[C@H](C3)[C@@H]2C1 [exo-tetrahydrodicyclopentadiene]
Details | molar heat capacity at constant pressure [J/K/mol]
403.38 K, 3040 kPa | 258.89
403.38 K, 4010 kPa | 257.41
403.39 K, 5000 kPa | 256.93
403.4 K, 6070 kPa | 256.62
423.2 K, 1020 kPa | 271.44
423.2 K, 2050 kPa | 270.28
423.2 K, 3010 kPa | 268.73
423.21 K, 100 kPa | 271.95
423.25 K, 4020 kPa | 267.73
423.26 K, 4980 kPa | 267.54
423.27 K, 6000 kPa | 266.96
443.11 K, 3110 kPa | 282.78
443.13 K, 2050 kPa | 283.43
443.14 K, 1030 kPa | 284.05
443.15 K, 240 kPa | 284.8
443.17 K, 4060 kPa | 282.05
443.18 K, 6050 kPa | 280.75
443.19 K, 5030 kPa | 281.38
463.16 K, 2040 kPa | 298.88
463.17 K, 230 kPa | 301.77
463.18 K, 1060 kPa | 300.31
463.19 K, 4070 kPa | 297.53
463.2 K, 3000 kPa | 299.41
463.21 K, 5010 kPa | 297.44
463.22 K, 6020 kPa | 296.56
483.31 K, 2050 kPa | 316.76
483.32 K, 3040 kPa | 315.54
483.37 K, 4030 kPa | 315.19
483.37 K, 6060 kPa | 314.11
483.38 K, 5080 kPa | 314.31
483.39 K, 1020 kPa | 319.24
483.42 K, 470 kPa | 321.27
503.28 K, 1020 kPa | 336.59
503.28 K, 2040 kPa | 334.35
503.28 K, 3050 kPa | 333.03
503.29 K, 4090 kPa | 330.6
503.29 K, 5070 kPa | 331.61
503.3 K, 480 kPa | 338.7
503.3 K, 6000 kPa | 331.5
523.44 K, 3010 kPa | 348.07
523.45 K, 1030 kPa | 352.98
523.45 K, 2060 kPa | 350.7
523.47 K, 500 kPa | 355.43
523.49 K, 5040 kPa | 345.42
523.49 K, 6180 kPa | 344.08
523.5 K, 4000 kPa | 346.42
